Experimental data taken from patent US20110190235A1, “BORON-CONTAINING SMALL MOLECULES AS ANTIPROTOZOAL AGENTS” (Anacor Pharmaceuticals, Inc., priority 2009, published 2011).
Converted amounts (≈) assume the structure as drawn. Like-named read-outs stand apart in the source and are kept apart here.

Key:
[1] = L929 cytotoxicity evaluation (resazurin); type: cell-based; conditions: mouse, L929 mouse fibroblast cells; 72 hrs incubation; read-out: Cytotox L-929 IC50
Procedure: For evaluation of compound effects on mammalian cells, L929 mouse fibroblast cells were used. Cells were maintained as adherent cultures in T-25 vented cap flasks in a humidified incubator at 37° C. in the presence of 5% CO2. Culture media was D-MEM supplemented with 10% fetal bovine serum and 1% penicillin/streptomycin. L929 cells were maintained below confluent levels by sub-culturing at 1:10 dilution twice weekly using 0.05% trypsin for detachment.
Sub-confluent L929 cells were trypsinized, resuspended in fresh media and 10 uL was counted using hemocytometer to determine cell concentration. Cells were diluted to 1×10^4/mL in DMEM, dispensed (100 uL) into 96-well plates using a Multidrop 384 dispenser and allowed to attach overnight. Spent media was replaced with 99.5 uL fresh D-MEM and compounds to be tested were serially diluted in DMSO and 0.5 uL added using a Biomek NX liquid handler. Plates were incubated with compounds for 72 hrs at 37° C. with 5% CO2. Resazurin (20 uL of 12.5 mg/ml stock) from Sigma-Aldrich was added to each well and plates were incubated for an additional 3-4 hrs. Assay plates were read using an EnVision plate reader at an excitation wavelength of 544 nm and emission of 590 nm. Single data points were used to generate sigmoidal dose response curves and determine IC50 values using XLfit curve fitting software from IDBS (Guildford, UK).

[2] = system: bloodstream-form trypanosome T. brucei brucei 427 strain; assay: Trypanosoma brucei brucei high-throughput in vitro drug sensitivity assay (resazurin); type: cell-based; conditions: Trypanosoma brucei
[3] = 72 hrs incubation, read-out: T.b. brucei IC50

SMILES	IC50 [2, 3] [µg/mL]	IC50 at 72 h [1] [µg/mL]	IC50 ([2]; 72 h, read-out: T.b. brucei IC50 (ug/mL)) [µg/mL]
CC1(C)OB(O)c2cc(NC(=O)c3cc(F)ccc3C(F)(F)F)ccc21 [compound 88, 5-Fluoro-N-(1-hydroxy-3,3-dimethyl-1,3-dihydro-benzo[c][1,2]oxaborol-6-yl)-2-trifluoromethyl-benzamide]	0.313 (≈ 0.853 µM)	> 10	
CC1(C)OB(O)c2cc(NC(=O)c3ccc([N+](=O)[O-])cc3Cl)ccc21 [compound 93]	0.197 (≈ 0.546 µM)	> 10	
COc1ccc(C(=O)Nc2ccc3c(c2)B(O)OC3(C)C)c(OC)c1 [compound 94]	0.4 (≈ 1.17 µM)	> 10	
COc1ccc(C(=O)Nc2ccc3c(c2)B(O)OC3(C)C)cc1C [compound 95, N-(1-Hydroxy-3,3-dimethyl-1,3-dihydro-benzo[c][1,2]oxaborol-6-yl)-4-methoxy-3-methyl-benzamide]	0.86 (≈ 2.64 µM)	> 10	
COc1cccc(OC)c1C(=O)Nc1ccc2c(c1)B(O)OC2(C)C [compound 96, N-(1-Hydroxy-3,3-dimethyl-1,3-dihydro-benzo[c][1,2]oxaborol-6-yl)-2,6-dimethoxy-benzamide]	2.72 (≈ 7.97 µM)	> 10	
C=Cc1ccc(C(=O)Nc2ccc3c(c2)B(O)OC3(C)C)c(Cl)c1 [compound 97, 2-Chloro-N-(1-hydroxy-3,3-dimethyl-1,3-dihydro-benzo[c][1,2]oxaborol-6-yl)-4-vinyl-benzamide]		> 10	0.05 (≈ 0.146 µM)
CC(C)=Cc1ccc(C(=O)Nc2ccc3c(c2)B(O)OC3(C)C)c(Cl)c1 [compound 99, 2-Chloro-N-(1-hydroxy-3,3-dimethyl-1,3-dihydro-benzo[c][1,2]oxaborol-6-yl)-4-(2-methyl-propenyl)-benzamide]	0.19 (≈ 0.514 µM)	8.6 (≈ 23.3 µM)	
C=C(C)c1ccc(C(=O)Nc2ccc3c(c2)B(O)OC3(C)C)c(Cl)c1 [compound 100, 2-Chloro-N-(1-hydroxy-3,3-dimethyl-1,3-dihydro-benzo[c][1,2]oxaborol-6-yl)-4-isopropenyl-benzamide]	0.077 (≈ 0.217 µM)	9.55 (≈ 26.9 µM)	
CC(C)Cc1ccc(C(=O)Nc2ccc3c(c2)B(O)OC3(C)C)c(Cl)c1 [compound 103]	0.184 (≈ 0.495 µM)	> 10	
CC1(C)OB(O)c2cc(NC(=O)c3c(F)ccc(F)c3Cl)ccc21 [compound 104, 2-Chloro-3,6-difluoro-N-(1-hydroxy-3,3-dimethyl-1,3-dihydro-benzo[c][1,2]oxaborol-6-yl)-benzamide]	1.12 (≈ 3.19 µM)	> 10	
CC1(C)OB(O)c2cc(NC(=O)c3c(Cl)cc(Cl)cc3Cl)ccc21 [compound 105, 2,4,6-Trichloro-N-(1-hydroxy-3,3-dimethyl-1,3-dihydro-benzo[c][1,2]oxaborol-6-yl)-benzamide]	0.788 (≈ 2.05 µM)	> 10	
COc1cc(C(=O)Nc2ccc3c(c2)B(O)OC3(C)C)cc(OC)c1OC [compound 106, N-(1-Hydroxy-3,3-dimethyl-1,3-dihydro-benzo[c][1,2]oxaborol-6-yl)-3,4,5-trimethoxy-benzamide]	> 5	> 10	
Cc1ccc(Cl)c(C(=O)Nc2ccc3c(c2)B(O)OC3(C)C)c1F [compound 108, 6-Chloro-2-fluoro-N-(1-hydroxy-3,3-dimethyl-1,3-dihydro-benzo[c][1,2]oxaborol-6-yl)-3-methyl-benzamide]	0.378 (≈ 1.09 µM)	> 10	
CC1(C)OB(O)c2cc(NC(=O)c3c(C(F)(F)F)ccc(Cl)c3F)ccc21 [compound 109, 3-Chloro-2-fluoro-N-(1-hydroxy-3,3-dimethyl-1,3-dihydro-benzo[c][1,2]oxaborol-6-yl)-6-trifluoromethyl-benzamide]	0.379 (≈ 0.944 µM)	> 10	
CC1(C)OB(O)c2cc(NC(=O)c3c(F)c(F)c(F)c(F)c3F)ccc21 [compound 110, 2,3,4,5,6-Pentafluoro-N-(1-hydroxy-3,3-dimethyl-1,3-dihydro-benzo[c][1,2]oxaborol-6-yl)-benzamide]	> 5	> 10	
CC1(C)OB(O)c2cc(NC(=O)c3cccnc3)ccc21 [compound 115, N-(1-Hydroxy-3,3-dimethyl-1,3-dihydro-benzo[c][1,2]oxaborol-6-yl)-nicotinamide]	> 5	> 10	
CC1(C)OB(O)c2cc(NC(=O)c3ccncc3)ccc21 [compound 116, N-(1-Hydroxy-3,3-dimethyl-1,3-dihydro-benzo[c][1,2]oxaborol-6-yl)-isonicotinamide]	> 5	> 10	
CC1(C)OB(O)c2cc(NC(=O)c3cnccn3)ccc21 [compound 119, Pyrazine-2-carboxylic acid (1-hydroxy-3,3-dimethyl-1,3-dihydro-benzo[c][1,2]oxaborol-6-yl)-amide]	> 5	> 10	
CC1(C)OB(O)c2cc(NC(=O)c3ccoc3)ccc21 [compound 120, Furan-3-carboxylic acid (1-hydroxy-3,3-dimethyl-1,3-dihydro-benzo[c][1,2]oxaborol-6-yl)-amide]	> 5	> 10	
Cc1cc(C(=O)Nc2ccc3c(c2)B(O)OC3(C)C)c(C)o1 [compound 122, 2,5-Dimethyl-furan-3-carboxylic acid (1-hydroxy-3,3-dimethyl-1,3-dihydro-benzo[c][1,2]oxaborol-6-yl)-amide]	> 5	> 10	
CC1(C)OB(O)c2cc(NC(=O)c3cc[nH]n3)ccc21 [compound 123, 1H-Pyrazole-3-carboxylic acid (1-hydroxy-3,3-dimethyl-1,3-dihydro-benzo[c][1,2]oxaborol-6-yl)-amide]	> 5	> 10	
CC1(C)OB(O)c2cc(NC(=O)Cc3cccs3)ccc21 [compound 125, N-(1-Hydroxy-3,3-dimethyl-1,3-dihydro-benzo[c][1,2]oxaborol-6-yl)-2-thiophen-2-yl-acetamide]	> 5	> 10	
CC1(C)OB(O)c2cc(NC(=O)C3CC3)ccc21 [compound 126, Cyclopropanecarboxylic acid (1-hydroxy-3,3-dimethyl-1,3-dihydro-benzo[c][1,2]oxaborol-6-yl)-amide]	> 5	> 10	

More lines, main results first:

IC50 [2, 3] [µg/mL]	SMILES	IC50 at 72 h [1] [µg/mL]	IC50 ([2]; 72 h, read-out: T.b. brucei IC50 (ug/mL)) [µg/mL]
0.152 (≈ 0.461 µM)	Cc1ccc(C(=O)Nc2ccc3c(c2)B(O)OC3(C)C)c(Cl)c1 [compound 89, 2-Chloro-N-(1-hydroxy-3,3-dimethyl-1,3-dihydro-benzo[c][1,2]oxaborol-6-yl)-4-methyl-benzamide]	> 10	
0.514 (≈ 1.34 µM)	CC1(C)OB(O)c2cc(NC(=O)c3cc(C(F)(F)F)ccc3Cl)ccc21 [compound 90, 2-Chloro-N-(1-hydroxy-3,3-dimethyl-1,3-dihydro-benzo[c][1,2]oxaborol-6-yl)-5-trifluoromethyl-benzamide]	> 10	
0.786 (≈ 2.1 µM)	Cc1cc(Br)ccc1C(=O)Nc1ccc2c(c1)B(O)OC2(C)C [compound 91]	> 10	
0.158 (≈ 0.438 µM)	CC1(C)OB(O)c2cc(NC(=O)c3cc([N+](=O)[O-])ccc3Cl)ccc21 [compound 92]	2.68 (≈ 7.43 µM)	
0.091 (≈ 0.256 µM)	C=CCc1ccc(C(=O)Nc2ccc3c(c2)B(O)OC3(C)C)c(Cl)c1 [compound 98, 4-Allyl-2-chloro-N-(1-hydroxy-3,3-dimethyl-1,3-dihydro-benzo[c][1,2]oxaborol-6-yl)-benzamide]	> 10	
0.125 (≈ 0.35 µM)	CCCc1ccc(C(=O)Nc2ccc3c(c2)B(O)OC3(C)C)c(Cl)c1 [compound 102, 2-Chloro-N-(1-hydroxy-3,3-dimethyl-1,3-dihydro-benzo[c][1,2]oxaborol-6-yl)-4-propyl-benzamide]	> 10	
1.23 (≈ 3.71 µM)	CC1(C)OB(O)c2cc(NC(=O)c3cccc4ccccc34)ccc21 [compound 111, Naphthalene-1-carboxylic acid (1-hydroxy-3,3-dimethyl-1,3-dihydro-benzo[c][1,2]oxaborol-6-yl)-amide]	> 10	
> 5	CC1(C)OB(O)c2cc(NC(=O)c3cccc4cccnc34)ccc21 [compound 113, Quinoline-8-carboxylic acid (1-hydroxy-3,3-dimethyl-1,3-dihydro-benzo[c][1,2]oxaborol-6-yl)-amide]	> 10	
1.55 (≈ 4.67 µM)	CC1(C)OB(O)c2cc(NC(=O)c3ccc4ccccc4n3)ccc21 [compound 117, Quinoline-2-carboxylic acid (1-hydroxy-3,3-dimethyl-1,3-dihydro-benzo[c][1,2]oxaborol-6-yl)-amide]	> 10	
0.814 (≈ 2.46 µM)	Cc1ccc(C(=O)Nc2ccc3c(c2)B(O)OC3(C)C)c(Cl)n1 [compound 118]	> 10	
3.2 (≈ 11.2 µM)	Cc1occc1C(=O)Nc1ccc2c(c1)B(O)OC2(C)C [compound 121, 2-Methyl-furan-3-carboxylic acid (1-hydroxy-3,3-dimethyl-1,3-dihydro-benzo[c][1,2]oxaborol-6-yl)-amide]	> 10	
2.7 (≈ 9.4 µM)	CC1(C)OB(O)c2cc(NC(=O)c3cccs3)ccc21 [compound 124, Thiophene-2-carboxylic acid (1-hydroxy-3,3-dimethyl-1,3-dihydro-benzo[c][1,2]oxaborol-6-yl)-amide]	> 10	
